Values of other authors in patent publication US20240199566A1, “CATALYTIC SYNTHESIS OF DELTA-VALEROLACTONE (DVL) FROM FURFURAL-DERIVED 2-HYDROXYTETRAHYDROPYRAN (HTHP)” (Wisconsin Alumni Research Foundation, priority 2022, published 2024).

Settings: stated as a property, no test described

solubility in water: < 1 wt %
SMILES: C1=COCCC1 [DHP, 3,4-dihydropyran]
